Assay results published in PMC9403717, “Ruthenium complexes show potent inhibition of AKR1C1, AKR1C2, and AKR1C3 enzymes and anti-proliferative action against chemoresistant ovarian cancer cell line” (Frontiers in Pharmacology, 2022).

What was measured:
OVCAR-4 cells = test: Cell proliferation assay (alamarBlue), OVCAR-4; format: cell-based, human; conditions: for IC50: OVCAR-4, 48 h incubation
Procedure: The cell line COV362 (CVCL_2,420) was originally established from a high-grade ovarian serous adenocarcinoma from a metastatic site in the pleural effusion ([van den Berg-Bakker et al., 1993]) and was purchased from ECACC (ECACC 07071910) as p37 on 13 October 2017. The growth medium for COV362 cells was DMEM (D5546; Sigma–Aldrich GmbH), with 10% FBS (F9665; Sigma–Aldrich GmbH) and 2 mM L-glutamine (G7513; Sigma–Aldrich GmbH). COV362 cells in passages p37 + 12 to p37 + 17 were used in this study and seeded at a concentration of 3.5 cells/ml × 10^4 cells/ml for proliferation studies and at a concentration of 5.3 × 10^5/ml for migration studies. The cell line OVCAR-4 (CVCL_1,627) is a high-grade serous ovarian adenocarcinoma cell line established from a patient refractory to cisplatin ([Johnson et al., 1997]). The cell line was purchased from Merck on 19 March 2021. The growth medium for OVCAR-4 cells was RPMI-1640 (Sigma R5586) supplemented with 2 mM glutamine (G7513; Sigma–Aldrich GmbH), 10% FBS (F9665; Sigma–Aldrich GmbH), 0.25 μg/ml insulin (I9278; Sigma–Aldrich GmbH). OVCAR-4 cells in passages p+6 to p+15 were used in this study and seeded at a concentration of 6 cells/ml × 10^4 cells/ml. The control cell line HIO80 (CVCL_E274) was obtained from Andrew K. Godwin (University of Kansas Medical Center, Kansas, United States) on 20 October 2017 as p+72. It was originally established from ovarian surface epithelium ([Yang et al., 2004]). HIO80 cells were grown in RPMI medium (R5886, Sigma–Aldrich GmbH) supplemented with 10% FBS (F9665; Sigma–Aldrich GmbH), 2 mm L-glutamine (G7513; Sigma–Aldrich GmbH) and 6.6 µg/ml insulin (I9278; Sigma–Aldrich GmbH). HIO80 cells in passages p72 + 8 to p72 + 19 were used in this study and seeded at a concentration of 2 × 10^4 cells/mL. HIO80 in passage +10 was authenticated by short tandem repeats (STR) profiling performed by ATCC on 22 February 2019. Cells were grown in a humidified atmosphere containing 5% CO2 at 37°C. All cell lines were negative for mycoplasma infection which was periodically tested using MycoAlert^TM mycoplasma detection kit (Lonza, Basel, Switzerland).
The effect of ruthenium compounds on the proliferation of ovarian cancer cell lines COV362 and OVCAR-4 and the control cell line HIO80 was analyzed using the cell proliferation reagent alamarBlue HS (A50101; Thermo Fisher Scientific) following the manufacturer’s instructions.
Cells were seeded in 96-well plates in 100 µL of medium and allowed to adhere and grow for 24 h. […] Cisplatin and carboplatin purchased from Sigma–Aldrich GmbH (cat. number: PHR1624, lot: LRAB7778) and (cat. number: C2538, lot: MKCK1243) were dissolved in sterile water. Working solutions were prepared by a serial dilution of stock solutions with a culture medium. After the initial incubation, cells were treated with ruthenium complexes, cisplatin, and carboplatin. A range of final concentrations between 0.001 and 300 µM were used for ruthenium complexes and cisplatin, and between 0.001 µM and 1 mM for carboplatin. After 48 h of incubation, plates were incubated with 20 µL of alamarBlue. After 4 h absorbance was measured with a BioTek microplate spectrophotometer at 570 nm, with the reference wavelength set at 600 nm. First, the background value of a well containing the active substance without cells was subtracted, then the average values for duplicates/triplicates were calculated. The absorbance of the well containing only untreated cells was used as a normalization control. The half-maximal […] concentration (IC50) was determined for all ruthenium complexes with a growth-inhibiting effect on cells by constructing a dose-response curve (Graph Pad Prism, Version 8.0).

COV362 cells = test: Cell migration assay (Ibidi culture inserts), COV362; format: cell-based, human; conditions: 100 μM; for effect on cell migration (in words): 24 and 48 h
Procedure: Cell migration assay was performed using Ibidi® three-well culture inserts. The inserts were placed in six-well plates. In total, 70 µL of cell suspension was seeded in the inserts and allowed to adhere and grow for 24 h. When the cells formed a confluent monolayer, the inserts were carefully removed and the cells were washed two times with DPBS. Cells were treated with 100 μM (final concentration) of compounds 8, 9, cisplatin, and carboplatin in 2 ml of growth medium. Cells treated with a medium containing the same volume of sterile water or DMSO were used as the controls. Images of cell gaps were taken with Axio Scope A1 Polarized Light Microscope (Zeiss) at the time of treatment, 24 and 48 h after, and analyzed using ImageJ software.

SMILES	fold higher IC50 value on OVCAR-4 compared to COV362 (OVCAR-4 cells) [fold]	IC50 (OVCAR-4 cells) [µM]	effect on cell migration (in words) (COV362 cells)	cytotoxic effect in migration assay (in words) (COV362 cells; after 48 h incubation)	fold lower IC50 value on OVCAR-4 compared to COV362 (OVCAR-4 cells) [fold]
Cc1ccc(C(C)C)cc1.[Cl-].[O-]c1c(I)cc(Cl)c2cccnc12.[Ru+2] [Compound 7]	1.6	28.1	–	–	–
C1N2CN3CN1CP(C2)C3.Cc1ccc(C(C)C)cc1.F[P-](F)(F)(F)(F)F.[O-]c1c(I)cc(Cl)c2cccnc12.[Ru+2] [Compound 8]	2.6	97.5	inhibited cell migration similarly to cisplatin	–	–
Cc1ccc(C(C)C)cc1.O=[N+]([O-])c1ccc([O][Ru][Cl])c2ncccc12 [Compound 9, (η ^6-p-Cymene) (nitroxolinato)chloridoruthenium (II)]	–	14.4	prevented migration	cytotoxic effect	1.5
